Test results taken from US4672068A, “Antihypertensive 1,4-dihydropyridines having a conjugated ester” (Fujirebio Kabushiki Kaisha, priority 1984, dated 1987).

Legend:
in vivo = settings: mouse, iv
Method: Acute toxicity of several derivatives was tested with male ddy mice weighed 15-30 grams by the up and down method. Each derivative was dissolved in 1.5% PVP/ethanol solution, and diluted with a saline solution. Such derivative solution was injected into the caudal vein, and the acute toxicity was determined.

[1] = system: rat (SHR), blood pressure and heart rate; test: Depressor response of trans- and cis-forms, dose-response intravenous, Tables 5 and 6; format: in vivo; settings: for ED40: Rattus norvegicus, intravenous, from regression line
Method: Male spontaneously hypertensive rats (SHR) which had mean arterial blood pressures higher than 140 mmHg were used for the experiments. Arterial blood pressure was measured through the catherized artery with a pressure transducer (MPU-0.5, manufactured by Nihon Kohden Kabushiki Kaisha). The catheter was inserted into the abdominal aorta via the median coccygcal artery of SHR under light ether anesthesia. The recordings were made on a rectigraph (manufactured by Sanei Sokki Kabushiki Kaisha). The 1,4-dihydropyridine derivatives prepared in the foregoing examples were administered with catheter which was inserted previously into the caudal vein or duodenum at least two hours after the operation. SHR were restrained with wire mesh cage immediately after the operation. […]

[2] = system: Male spontaneously hypertensive rats (SHR), arterial blood pressure; test: Depressor response after intraduodenal administration (1 mg/kg), Table 2; format: in vivo, rat; settings: for Half-life: '120<' means greater than 120
Method: Arterial blood pressure was measured through the catherized artery with a pressure transducer (MPU-0.5, manufactured by Nihon Kohden Kabushiki Kaisha). The catheter was inserted into the abdominal aorta via the median coccygcal artery of SHR under light ether anesthesia. The recordings were made on a rectigraph (manufactured by Sanei Sokki Kabushiki Kaisha). The 1,4-dihydropyridine derivatives prepared in the foregoing examples were administered with catheter which was inserted previously into the caudal vein or duodenum at least two hours after the operation. SHR were restrained with wire mesh cage immediately after the operation.

[3] = system: Male spontaneously hypertensive rats (SHR), arterial blood pressure; test: Depressor response after intravenous administration (30 μg/kg), Table 1; format: in vivo, rat; settings: for Duration: '90<' means greater than 90
How it was run: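 Conscious restrained SHR with mean arterial pressure above 140 mmHg; pressure recorded via abdominal aortic catheter and transducer. Dosing was at least 2 h after surgery, through a caudal vein catheter. Compound was given in 1.5% PVP/ethanol diluted with 0.9% saline.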

[4] = system: Male SHR, systolic blood pressure; test: Systolic blood pressure by tail cuff method, oral administration (3 mg/kg), Table 4; format: in vivo, rat; settings: conscious SHR; for Duration: '24<' means greater than 24
Method: Systolic blood pressure was measured by the tail cuff method with electrophygmomanometer (PE-300, made by Narco Co.). Each derivative (3 mg/kg) was administered orally, suspended in 5% gum arabic solution.

[5] = male ddy mice, caudal vein injection, '60<' means greater than 60

| Structure (SMILES) | The time to reach the lowest BP [2] [min] | ΔBP (Maximum depressor response) [2] [mmHg] | Half-life [2] [min] | The time to reach the lowest BP [3] [min] | ΔBP (Maximum depressor response) [3] [mmHg] | Duration [3] [min] | ΔBP After 1 hour [4] [mmHg] | ΔBP After 3 hours [4] [mmHg] | Duration [4] [h] | LD50 (in vivo; [5]) [mg/kg] | further results |
| --- | --- | --- | --- | --- | --- | --- | --- | --- | --- | --- | --- |
| COC(=O)C1=C(C)NC(C)=C(C(=O)OCC/C=C/c2ccc3ccccc3c2)C1c1cccc([N+](=O)[O-])c1 (stereo not drawn) [12 (trans), 4-β-naphthyl-3-butenyl methyl 4-(3-nitrophenyl)-2,6-dimethyl-1,4-dihydropyridine-3,5-dicarboxylate] | 50 | 25 | 100 | 3.0 | 50 | > 90 | – | – | – | – | LD50 (in vivo): > 60 mg/kg; Depressure Response MaxΔBP ([1]; 10 μg/kg i.v.): 21.7 mmHg; Depressure Response Peak ([1]; 10 μg/kg i.v.): 2.8 min; MaxΔHR (Heart rates) ([1]; 10 μg/kg i.v.): 43.3 beats/min; T 1/2 (Halflife) ([1]; 10 μg/kg i.v.): 11.3 min; Depressure Response MaxΔBP ([1]; 30 μg/kg i.v.): 54.8 mmHg; Depressure Response Peak ([1]; 30 μg/kg i.v.): 4.1 min; MaxΔHR (Heart rates) ([1]; 30 μg/kg i.v.): 90.0 beats/min; T 1/2 (Halflife) ([1]; 30 μg/kg i.v.): 16.0 min; Depressure Response MaxΔBP ([1]; 100 μg/kg i.v.): 72.5 mmHg; Depressure Response Peak ([1]; 100 μg/kg i.v.): 4.3 min; MaxΔHR (Heart rates) ([1]; 100 μg/kg i.v.): 80.0 beats/min; T 1/2 (Halflife) ([1]; 100 μg/kg i.v.): 37.5 min; ED40 [1]: 0.0199 mg/kg |
| COC(=O)C1=C(C)NC(C)=C(C(=O)OC)C1c1ccccc1[N+](=O)[O-] [A, 4-(o-nitrophenyl)-2,6-dimethyl-1,4-dihydropyridine-3,5-dicarboxylic acid dimethyl ester, reference compound] | 6.0 | 48.3 | – | 0.9 | 18.7 | 35.6 ± 6.5 | -45 | -22.0 | < 7 | – | – |
| COC(=O)C1=C(C)NC(C)=C(C(=O)OCCN(C)Cc2ccccc2)C1c1cccc([N+](=O)[O-])c1.Cl (stereo not shown) [B, 4-(m-nitrophenyl)-2,6-dimethyl-1,4-dihydropyridine-3,5-dicarboxylic acid-3-methyl ester-5-[2-(benzylmethylamino)-ethyl]ester hydrochloride, reference compound] | 10.7 | 35 | 46.7 | 0.6 | 58.3 | 45 to 90 | -27 | -4.5 | < 3 | 9.7 | – |
| COC(=O)C1=C(C)NC(C)=C(C(=O)OC/C=C/c2ccccc2)C1c1cccc([N+](=O)[O-])c1 (stereo not drawn) [Example 1, cinnamyl methyl 4-(3-nitrophenyl)-2,6-dimethyl-1,4-dihydropyridine-3,5-dicarboxylate (trans)] | 43.7 | 35.0 | > 120 | 1.7 | 44 | > 90 | -75 | -80.5 | 7 to 24 | – | Depressure Response MaxΔBP ([1]; 10 μg/kg i.v.): 35.0 mmHg; Depressure Response Peak ([1]; 10 μg/kg i.v.): 2.0 min; MaxΔHR (Heart rates) ([1]; 10 μg/kg i.v.): 28.3 beats/min; T 1/2 (Halflife) ([1]; 10 μg/kg i.v.): 32.6 min; Depressure Response MaxΔBP ([1]; 30 μg/kg i.v.): 52.2 mmHg; Depressure Response Peak ([1]; 30 μg/kg i.v.): 1.8 min; MaxΔHR (Heart rates) ([1]; 30 μg/kg i.v.): 65.3 beats/min; T 1/2 (Halflife) ([1]; 30 μg/kg i.v.): 26.7 min; Depressure Response MaxΔBP ([1]; 100 μg/kg i.v.): 69.0 mmHg; Depressure Response Peak ([1]; 100 μg/kg i.v.): 2.0 min; MaxΔHR (Heart rates) ([1]; 100 μg/kg i.v.): 32.5 beats/min; T 1/2 (Halflife) ([1]; 100 μg/kg i.v.): 48.5 min; ED40 [1]: 0.0156 mg/kg |
| COC(=O)C1=C(C)NC(C)=C(C(=O)OCC=Cc2ccco2)C1c1cccc([N+](=O)[O-])c1 (stereo not shown) [Example 7, 3-(2furyl)-2-propenyl methyl 4-(3-nitrophenyl)-2,6-dimethyl-1,4-dihydropyridine-3,5-dicarboxylate] | 105 | 20 | > 120 | – | – | – | – | – | – | > 60 | – |
| COC(=O)C1=C(C)NC(C)=C(C(=O)OCC=CC=Cc2ccccc2)C1c1cccc([N+](=O)[O-])c1 (stereo not shown) [Example 16, 5-phenyl-2,4-pentadienyl methyl 4-(3-nitrophenyl)-2,6-dimethyl-1,4-dihydropyridine-3,5-dicarboxylate] | 50 | 45 | > 120 | – | – | – | -55 | -60 | > 24 | – | – |
| COC(=O)C1=C(C)NC(C)=C(C(=O)OCCC=Cc2ccc(C#N)cc2)C1c1cccc([N+](=O)[O-])c1 (stereo not shown) [Example 17, 4-(4-cyanophenyl)-3-butenyl methyl 4-(3-nitrophenyl)-2,6-dimethyl-1,4-dihydropyridine-3,5-dicarboxylate] | 180 | 25 | > 200 | 1.0 | 70 | > 80 | – | – | – | 45 | – |
| COC(=O)C1=C(C)NC(C)=C(C(=O)OCCC=Cc2ccc(SC)cc2)C1c1cccc([N+](=O)[O-])c1 (stereo not shown) [Example 24, 4-(p-methylthiophenyl)-3-butenylmethyl 4-(3-nitrophenyl)-2,6-dimethyl-1,4-dihydropyridine-3,5-dicarboxylate] | 160 | 27 | > 160 | 2.1 | 60 | 120 | – | – | – | 50 | – |
| COC(=O)C1=C(C)NC(C)=C(C(=O)OC(C=Cc2ccccc2)c2ccccc2)C1c1cccc([N+](=O)[O-])c1 (stereo not shown) [Example 27, 1,3-diphenyl-2-propenyl methyl 4-(3-nitrophenyl)-2,6-dimethyl-1,4-dihydropyridine-3,5-dicarboxylate] | 170 | 82 | > 240 | 56 | 45 | > 240 | -130 | -113 | – | – | – |
| COC(=O)C1=C(C)NC(C)=C(C(=O)OCC#Cc2ccccc2)C1c1cccc([N+](=O)[O-])c1 (stereo not shown) [Example 55, Methyl phenylpropargyl 4-(3-nitrophenyl)-2,6-dimethyl-1,4-dihydropyridine-3,5-dicarboxylate] | 60 | 45 | > 240 | 2 | 55 | > 90 | -65 | -75 | > 24 | > 60 | – |
| COC(=O)C1=C(C)NC(C)=C(C(=O)OCC/C=C\c2ccc3ccccc3c2)C1c1cccc([N+](=O)[O-])c1 (stereo not drawn) [Example 57, Methyl (Z)-4-(2-naphthyl)-3-butenyl 4-(3-nitrophenyl)-2,6-dimethyl-1,4-dihydropyridine-3,5-dicarboxylate (cis)] | – | – | – | 2.6 | 26.8 | – | – | – | – | > 75 | Depressure Response MaxΔBP ([1]; 10 μg/kg i.v.): 12.0 mmHg; Depressure Response Peak ([1]; 10 μg/kg i.v.): 3.2 min; MaxΔHR (Heart rates) ([1]; 10 μg/kg i.v.): 23.3 beats/min; T 1/2 (Halflife) ([1]; 10 μg/kg i.v.): 14.0 min; Depressure Response MaxΔBP ([1]; 30 μg/kg i.v.): 26.8 mmHg; Depressure Response Peak ([1]; 30 μg/kg i.v.): 2.6 min; MaxΔHR (Heart rates) ([1]; 30 μg/kg i.v.): 62.5 beats/min; T 1/2 (Halflife) ([1]; 30 μg/kg i.v.): 15.0 min; Depressure Response MaxΔBP ([1]; 100 μg/kg i.v.): 68.5 mmHg; Depressure Response Peak ([1]; 100 μg/kg i.v.): 3.8 min; MaxΔHR (Heart rates) ([1]; 100 μg/kg i.v.): 120 beats/min; T 1/2 (Halflife) ([1]; 100 μg/kg i.v.): 25.0 min; ED40 [1]: 0.0408 mg/kg |
